From ChEMBL document CHEMBL5131391, “One-pot three-component synthesis of novel pyrazolo[3,4-b]pyridines as potent antileukemic agents” (Eur J Med Chem, 2022)

Legend:
Assay type in all cases: functional
NCI-H23 = experiment: Antiproliferative activity against human NCI-H23 cells assessed as growth inhibition at 10 uM measured after 48 hrs by NCI protocol based SRB assay relative to control; details: read-out: GI
RXF 393 = experiment: Antiproliferative activity against human RXF 393 cells assessed as growth inhibition at 10 uM measured after 48 hrs by NCI protocol based SRB assay relative to control; details: read-out: GI
UACC-257 = experiment: Antiproliferative activity against human UACC-257 cells assessed as growth inhibition at 10 uM measured after 48 hrs by NCI protocol based SRB assay relative to control; details: read-out: GI
HCT-15 = experiment: Antiproliferative activity against human HCT-15 cells assessed as growth inhibition at 10 uM measured after 48 hrs by NCI protocol based SRB assay relative to control; details: read-out: GI
PC-3 = experiment: Antiproliferative activity against human PC-3 cells assessed as growth inhibition at 10 uM measured after 48 hrs by NCI protocol based SRB assay relative to control; details: read-out: GI
CCRF-CEM = experiment: Antiproliferative activity against human CCRF-CEM cells assessed as growth inhibition at 10 uM measured after 48 hrs by NCI protocol based SRB assay relative to control; details: read-out: GI
A549 = experiment: Antiproliferative activity against human A549 cells assessed as growth inhibition at 10 uM measured after 48 hrs by NCI protocol based SRB assay relative to control; details: read-out: GI
DU-145 = experiment: Antiproliferative activity against human DU-145 cells assessed as growth inhibition at 10 uM measured after 48 hrs by NCI protocol based SRB assay relative to control; details: read-out: GI
CAKI-1 = experiment: Antiproliferative activity against human CAKI-1 cells assessed as growth inhibition at 10 uM measured after 48 hrs by NCI protocol based SRB assay relative to control; details: read-out: GI
SF-268 = experiment: Antiproliferative activity against human SF-268 cells assessed as growth inhibition at 10 uM measured after 48 hrs by NCI protocol based SRB assay relative to control; details: read-out: GI
MCF7 = experiment: Antiproliferative activity against human MCF7 cells assessed as growth inhibition at 10 uM measured after 48 hrs by NCI protocol based SRB assay relative to control; details: read-out: GI
OVCAR-3 = experiment: Antiproliferative activity against human OVCAR-3 cells assessed as growth inhibition at 10 uM measured after 48 hrs by NCI protocol based SRB assay relative to control; details: read-out: GI
T47D = experiment: Antiproliferative activity against human T47D cells assessed as growth inhibition at 10 uM measured after 48 hrs by NCI protocol based SRB assay relative to control; details: read-out: GI
K562 = experiment: Antiproliferative activity against human K562 cells assessed as reduction in cell viability incubated for 72 hrs by resazurin dye based assay; details: K562, 72 h
NCI/ADR-RES = experiment: Antiproliferative activity against human NCl/ADR-RES cells assessed as growth inhibition at 10 uM measured after 48 hrs by NCI protocol based SRB assay relative to control; details: read-out: GI
U-251 = experiment: Antiproliferative activity against human U-251 cells assessed as growth inhibition at 10 uM measured after 48 hrs by NCI protocol based SRB assay relative to control; details: read-out: GI
EKVX = experiment: Antiproliferative activity against human EKVX cells assessed as growth inhibition at 10 uM measured after 48 hrs by NCI protocol based SRB assay relative to control; details: read-out: GI
NCI-H322M = experiment: Antiproliferative activity against human NCI-H322M cells assessed as growth inhibition at 10 uM measured after 48 hrs by NCI protocol based SRB assay relative to control; details: read-out: GI
UO-31 = experiment: Antiproliferative activity against human UO-31 cells assessed as growth inhibition at 10 uM measured after 48 hrs by NCI protocol based SRB assay relative to control; details: read-out: GI
SN12C = experiment: Antiproliferative activity against human SN12C cells assessed as growth inhibition at 10 uM measured after 48 hrs by NCI protocol based SRB assay relative to control; details: read-out: GI
MV4-11 = experiment: Antiproliferative activity against human MV4-11 cells assessed as reduction in cell viability incubated for 72 hrs by resazurin dye based assay; details: MV4-11, 72 h
IGROV-1 = experiment: Antiproliferative activity against human IGROV-1 cells assessed as growth inhibition at 10 uM measured after 48 hrs by NCI protocol based SRB assay relative to control; details: read-out: GI
HCT-116 = experiment: Antiproliferative activity against human HCT-116 cells assessed as growth inhibition at 10 uM measured after 48 hrs by NCI protocol based SRB assay relative to control; details: read-out: GI
UACC-62 = experiment: Antiproliferative activity against human UACC-62 cells assessed as growth inhibition at 10 uM measured after 48 hrs by NCI protocol based SRB assay relative to control; details: read-out: GI
NCI-H226 = experiment: Antiproliferative activity against human NCI-H226 cells assessed as growth inhibition at 10 uM measured after 48 hrs by NCI protocol based SRB assay relative to control; details: read-out: GI
SK-MEL-5 = experiment: Antiproliferative activity against human SK-MEL-5 cells assessed as growth inhibition at 10 uM measured after 48 hrs by NCI protocol based SRB assay relative to control; details: read-out: GI
RPMI-8226 = experiment: Antiproliferative activity against human RPMI-8226 cells assessed as growth inhibition at 10 uM measured after 48 hrs by NCI protocol based SRB assay relative to control; details: read-out: GI
M14 = experiment: Antiproliferative activity against human M14 cells assessed as growth inhibition at 10 uM measured after 48 hrs by NCI protocol based SRB assay relative to control; details: read-out: GI
MDA-MB-231 = experiment: Antiproliferative activity against human MDA-MB-231 cells assessed as growth inhibition at 10 uM measured after 48 hrs by NCI protocol based SRB assay relative to control; details: read-out: GI
ACHN = experiment: Antiproliferative activity against human ACHN cells assessed as growth inhibition at 10 uM measured after 48 hrs by NCI protocol based SRB assay relative to control; details: read-out: GI
SF-295 = experiment: Antiproliferative activity against human SF-295 cells assessed as growth inhibition at 10 uM measured after 48 hrs by NCI protocol based SRB assay relative to control; details: read-out: GI
MDA-MB-468 = experiment: Antiproliferative activity against human MDA-MB-468 cells assessed as growth inhibition at 10 uM measured after 48 hrs by NCI protocol based SRB assay relative to control; details: read-out: GI
LOX IMVI = experiment: Antiproliferative activity against human LOX IMVI cells assessed as growth inhibition at 10 uM measured after 48 hrs by NCI protocol based SRB assay relative to control; details: read-out: GI
OVCAR-4 = experiment: Antiproliferative activity against human OVCAR-4 cells assessed as growth inhibition at 10 uM measured after 48 hrs by NCI protocol based SRB assay relative to control; details: read-out: GI
HOP-62 = experiment: Antiproliferative activity against human HOP-62 cells assessed as growth inhibition at 10 uM measured after 48 hrs by NCI protocol based SRB assay relative to control; details: read-out: GI
MOLT-4 = experiment: Antiproliferative activity against human MOLT-4 cells assessed as growth inhibition at 10 uM measured after 48 hrs by NCI protocol based SRB assay relative to control; details: read-out: GI

For `N#Cc1c(-c2ccccc2)nc2c(c(-c3ccccc3)nn2-c2ccccc2)c1-c1ccc(O)cc1`, the inhibition of growth at 10 µM (NCI-H23) was 56%, the inhibition of growth at 10 µM (RXF 393) was 117% and the inhibition of growth at 10 µM (UACC-257) was 29%. The inhibition of growth at 10 µM (HCT-15) was 66%, the inhibition of growth at 10 µM (PC-3) was 96% and the inhibition of growth at 10 µM (CCRF-CEM) was 78%. It also gave an inhibition of growth at 10 µM (A549) of 59%, an inhibition of growth at 10 µM (DU-145) of 51% and an inhibition of growth at 10 µM (CAKI-1) of 48%. For the same compound, the inhibition of growth at 10 µM (SF-268) was 45%, the inhibition of growth at 10 µM (MCF7) was 86% and the inhibition of growth at 10 µM (OVCAR-3) was 46%. The inhibition of growth at 10 µM (T47D) was 65%, the IC50 (K562) was 9.6 µM and the inhibition of growth at 10 µM (NCI/ADR-RES) was 30%. It also gave an inhibition of growth at 10 µM (U-251) of 76%, an inhibition of growth at 10 µM (EKVX) of 55% and an inhibition of growth at 10 µM (NCI-H322M) of 34%. For the same compound, the inhibition of growth at 10 µM (UO-31) was 73%, the inhibition of growth at 10 µM (SN12C) was 39% and the IC50 (MV4-11) was 26.1 µM. The inhibition of growth at 10 µM (IGROV-1) was 29%, the inhibition of growth at 10 µM (HCT-116) was 66% and the inhibition of growth at 10 µM (UACC-62) was 39%. For the same compound, the inhibition of growth at 10 µM (NCI-H226) was 46%, the inhibition of growth at 10 µM (SK-MEL-5) was 42% and the inhibition of growth at 10 µM (RPMI-8226) was 87%. It also gave an inhibition of growth at 10 µM (M14) of 44%, an inhibition of growth at 10 µM (MDA-MB-231) of 77% and an inhibition of growth at 10 µM (ACHN) of 58%. It also gave an inhibition of growth at 10 µM (SF-295) of 143%, an inhibition of growth at 10 µM (MDA-MB-468) of 62% and an inhibition of growth at 10 µM (LOX IMVI) of 148%. For the same compound, the inhibition of growth at 10 µM (OVCAR-4) was 28% and the inhibition of growth at 10 µM (HOP-62) was 75%.
`N#Cc1c(-c2ccc(Cl)cc2)nc2c(c(-c3ccccc3)nn2-c2ccccc2)c1-c1ccc(O)cc1` gave an inhibition of growth at 10 µM (NCI-H23) of 52%, an inhibition of growth at 10 µM (RXF 393) of 127% and an inhibition of growth at 10 µM (UACC-257) of 15%. For the same compound, the inhibition of growth at 10 µM (HCT-15) was 73%, the inhibition of growth at 10 µM (PC-3) was 89% and the inhibition of growth at 10 µM (CCRF-CEM) was 73%. For the same compound, the inhibition of growth at 10 µM (A549) was 59%, the inhibition of growth at 10 µM (DU-145) was 50% and the inhibition of growth at 10 µM (CAKI-1) was 60%. For the same compound, the inhibition of growth at 10 µM (SF-268) was 54%, the inhibition of growth at 10 µM (MCF7) was 81% and the inhibition of growth at 10 µM (OVCAR-3) was 52%. The inhibition of growth at 10 µM (T47D) was 45%, the IC50 (K562) was 20.8 µM and the inhibition of growth at 10 µM (MOLT-4) was 76%. For the same compound, the inhibition of growth at 10 µM (NCI/ADR-RES) was 43%, the inhibition of growth at 10 µM (U-251) was 67% and the inhibition of growth at 10 µM (EKVX) was 33%. The inhibition of growth at 10 µM (NCI-H322M) was 30%, the inhibition of growth at 10 µM (UO-31) was 70% and the inhibition of growth at 10 µM (SN12C) was 118%. For the same compound, the IC50 (MV4-11) was 25.1 µM, the inhibition of growth at 10 µM (IGROV-1) was 31% and the inhibition of growth at 10 µM (HCT-116) was 86%. It also gave an inhibition of growth at 10 µM (UACC-62) of 47%, an inhibition of growth at 10 µM (NCI-H226) of 35% and an inhibition of growth at 10 µM (SK-MEL-5) of 44%. For the same compound, the inhibition of growth at 10 µM (RPMI-8226) was 83%, the inhibition of growth at 10 µM (M14) was 62% and the inhibition of growth at 10 µM (MDA-MB-231) was 64%. For the same compound, the inhibition of growth at 10 µM (ACHN) was 44%, the inhibition of growth at 10 µM (SF-295) was 99% and the inhibition of growth at 10 µM (MDA-MB-468) was 69%. It also gave an inhibition of growth at 10 µM (LOX IMVI) of 74%, an inhibition of growth at 10 µM (OVCAR-4) of 36% and an inhibition of growth at 10 µM (HOP-62) of 51%.
